Results on 23 compounds are retold here after US12649750B2, “Macrocyclic compounds, compositions, and methods of using thereof” (Sionna Therapeutics Inc., priority 2022, dated 2026).

One assay addresses T1, NBD1 (Homo sapiens, UniProt P13569).
T1 construct: Purified recombinant NBD1 was produced using previously described methods; made in house
In words: Aggregation analysis using differential static light scattering (DSLS), thermal stability of NBD1 (ΔTagg). Type of assay: binding. Particulars: ΔTagg versus DMSO control, NBD1 0.2 mg/ml. An outline of the steps: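 NBD1 0.2 mg/ml, S200 buffer (50 mM Tris-HCl, 150 mM NaCl, 5 mM MgCl2, 2 mM ATP, 2 mM DTT, pH7.6) + 1% glycerol; cpd in DMSO; oil overlay. Ramp 25→70° C. at 1° C./min, DSLS images every 0.5° C. ΔTagg = Tagg (inflection) − mean DMSO Tagg.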

The next assay concerns the target T2, CFTR (Homo sapiens, UniProt P13569, DEL508-508).
T2 construct: Primary human bronchial epithelial cells from a ΔF508 homozygous CF donor; host or cells: primary human bronchial epithelial cells (CF-HBE), ΔF508 homozygous donor
In words: TECC24 AUC fold over DMSO @10 μM, CFTR-mediated transepithelial chloride transport in CF-HBE cells. Particulars: test agent AUC divided by DMSO vehicle AUC, primary CF-HBE cells, ΔF508 homozygous donor, 48 hours incubation. Type of assay: cell-based. A digest of the protocol: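 ΔF508-homozygous primary bronchial epithelial cells incubated 48 h at 36.5° C with compound (10 μM) in IL-13-containing medium, then TECC24 current-clamp recording in pH 7.4 Hepes saline with benzamil 10 μM, forskolin 10 μM, then CFTR inhibitor-172 20 μM. Equivalent Cl− current AUC between forskolin and inhibitor, expressed as fold over DMSO.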

T1 sequence (P13569 423-646 limits assumed): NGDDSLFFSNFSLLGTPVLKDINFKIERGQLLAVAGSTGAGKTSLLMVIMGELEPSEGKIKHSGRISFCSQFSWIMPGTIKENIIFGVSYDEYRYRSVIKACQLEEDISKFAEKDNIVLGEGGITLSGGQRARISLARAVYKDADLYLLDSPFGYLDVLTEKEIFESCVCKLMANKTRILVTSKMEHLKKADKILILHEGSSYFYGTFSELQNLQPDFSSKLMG
T2 sequence (P13569 with tags, fused parts or gaps DEL508-508): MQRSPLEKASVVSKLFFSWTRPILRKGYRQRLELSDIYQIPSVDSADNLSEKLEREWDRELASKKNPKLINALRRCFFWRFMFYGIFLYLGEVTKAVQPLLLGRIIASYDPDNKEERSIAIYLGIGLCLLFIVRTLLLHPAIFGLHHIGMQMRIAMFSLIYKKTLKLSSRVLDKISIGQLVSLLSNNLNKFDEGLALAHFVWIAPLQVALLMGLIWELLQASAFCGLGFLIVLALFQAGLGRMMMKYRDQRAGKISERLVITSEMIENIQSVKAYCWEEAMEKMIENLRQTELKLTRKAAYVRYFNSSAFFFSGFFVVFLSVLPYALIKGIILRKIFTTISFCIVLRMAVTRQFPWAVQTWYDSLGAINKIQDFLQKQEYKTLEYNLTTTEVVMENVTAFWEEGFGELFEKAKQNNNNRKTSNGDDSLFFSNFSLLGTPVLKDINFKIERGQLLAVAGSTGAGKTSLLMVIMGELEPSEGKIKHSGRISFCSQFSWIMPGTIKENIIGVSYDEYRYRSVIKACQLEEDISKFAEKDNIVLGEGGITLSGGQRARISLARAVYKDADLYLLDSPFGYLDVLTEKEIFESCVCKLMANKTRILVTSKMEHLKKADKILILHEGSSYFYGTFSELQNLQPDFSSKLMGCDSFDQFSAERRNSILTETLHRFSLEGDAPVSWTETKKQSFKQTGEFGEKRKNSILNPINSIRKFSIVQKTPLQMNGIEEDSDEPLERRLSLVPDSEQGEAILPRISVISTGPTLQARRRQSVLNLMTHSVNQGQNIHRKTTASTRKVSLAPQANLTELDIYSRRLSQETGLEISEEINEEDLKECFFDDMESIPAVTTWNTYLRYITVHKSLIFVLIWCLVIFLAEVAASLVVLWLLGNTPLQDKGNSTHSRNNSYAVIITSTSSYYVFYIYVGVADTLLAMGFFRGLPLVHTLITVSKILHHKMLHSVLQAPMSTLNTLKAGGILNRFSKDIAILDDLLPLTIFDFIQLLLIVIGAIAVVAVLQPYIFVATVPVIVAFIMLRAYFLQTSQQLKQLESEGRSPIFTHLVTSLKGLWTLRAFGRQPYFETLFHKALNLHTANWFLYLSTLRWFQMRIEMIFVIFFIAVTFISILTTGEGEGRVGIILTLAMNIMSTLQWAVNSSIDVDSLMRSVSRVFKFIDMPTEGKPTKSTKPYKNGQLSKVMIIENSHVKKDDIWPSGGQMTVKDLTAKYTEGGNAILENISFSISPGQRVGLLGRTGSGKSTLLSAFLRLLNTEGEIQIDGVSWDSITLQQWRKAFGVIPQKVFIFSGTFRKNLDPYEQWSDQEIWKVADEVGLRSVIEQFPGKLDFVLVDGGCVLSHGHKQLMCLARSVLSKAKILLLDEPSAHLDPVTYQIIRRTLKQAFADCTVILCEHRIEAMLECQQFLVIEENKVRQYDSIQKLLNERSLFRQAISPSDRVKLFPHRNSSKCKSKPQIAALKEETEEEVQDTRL

Turning to `Cn1nc2nc1-c1cc(ccc1F)[S+]([O-])c1c(F)cc3[nH]ccc3c1CCS(=O)(=O)CC(C)(C)CCC[C@]2(C)c1ccccc1` (single isomer, unassigned) [Compound 223A], at NBD1, the “DSLS 3D (100 μM ΔT)” value was “A (an ΔTagg value less than or equal to 5 °C is marked “A”)”. On CFTR, the “TECC (AUC, 10 μM)” value is recorded as “A (a TECC value less than 12 is marked “A”)”.

In the case of `Cn1nc2nc1-c1cc(ccc1F)[S+]([O-])c1c(F)cc3[nH]ccc3c1CCS(=O)(=O)CC(C)(C)CCC[C@]2(C)c1ccccc1` (single isomer, unassigned) [Compound 223B], at NBD1, the “DSLS 3D (100 μM ΔT)” value is “C (a value greater than 10 °C and less than or equal to 25 °C is marked “C”)”. Moreover, the “TECC (AUC, 10 μM)” value at CFTR was “C (a value between 20 and 80 is marked “C”)”.

Consider `Cn1nc2nc1-c1cc(ccn1)[S+]([O-])c1c(F)cc3[nH]ccc3c1CCS(=O)(=O)CC(C)(C)CCC[C@]2(C)c1cccc(CCC(=O)O)c1` (single isomer, unassigned) [Compound 224], for which the “DSLS 3D (100 μM ΔT)” value at NBD1 is “C (a value greater than 10 °C and less than or equal to 25 °C is marked “C”)”. In addition, the “TECC (AUC, 10 μM)” value on CFTR is “C (a value between 20 and 80 is marked “C”)”.

Turning to `C[C@@H](Cc1cccc([C@@]2(C)CCCC(C)(C)CS(=O)(=O)CCc3c(c(F)c(F)c4[nH]ccc34)[S+]([O-])c3ccc(F)c(c3)-c3nc2nn3C)c1)C(=O)O` (single isomer, unassigned) [Compound 225A], the “DSLS 3D (100 μM ΔT)” value at NBD1 was “B (a value above 5 °C and less than or equal to 10 °C is marked “B”)”. For the same compound, the “TECC (AUC, 10 μM)” value on CFTR was “C (a value between 20 and 80 is marked “C”)”.

Regarding `C[C@@H](Cc1cccc([C@@]2(C)CCCC(C)(C)CS(=O)(=O)CCc3c(c(F)c(F)c4[nH]ccc34)[S+]([O-])c3ccc(F)c(c3)-c3nc2nn3C)c1)C(=O)O` (single isomer, unassigned) [Compound 225B], the “DSLS 3D (100 μM ΔT)” value at NBD1 was “C (a value greater than 10 °C and less than or equal to 25 °C is marked “C”)”. Also, at CFTR, the “TECC (AUC, 10 μM)” value is “C (a value between 20 and 80 is marked “C”)”.

With `Cn1nc2nc1-c1cc(ccc1F)[S+]([O-])c1c(F)cc3[nH]ccc3c1CCS(=O)(=O)CC(C)(C)CCC[C@]2(C)c1cccc(C[C@@H](O)CO)c1` (single isomer, unassigned) [Compound 235A], the “DSLS 3D (100 μM ΔT)” value at NBD1 was “B (a value above 5 °C and less than or equal to 10 °C is marked “B”)”. In addition, the “TECC (AUC, 10 μM)” value at CFTR is listed as “B (a value between 12-20 is marked “B”)”.

As for `Cn1nc2nc1-c1cc(ccc1F)[S+]([O-])c1c(F)cc3[nH]ccc3c1CCS(=O)(=O)CC(C)(C)CCC[C@]2(C)c1cccc(C[C@@H](O)CO)c1` (single isomer, unassigned) [Compound 235B], the “DSLS 3D (100 μM ΔT)” value at NBD1 is “C (a value greater than 10 °C and less than or equal to 25 °C is marked “C”)”. For the same compound, at CFTR, the “TECC (AUC, 10 μM)” value was “C (a value between 20 and 80 is marked “C”)”.

In the case of `Cn1nc2nc1-c1cc(ccc1F)[S+]([O-])c1c(F)cc3[nH]ccc3c1CCS(=O)(=O)CC(C)(C)CCC[C@]2(C)c1cccc([C@@H](O)CO)c1` (single isomer, unassigned) [Compound 236A], the “DSLS 3D (100 μM ΔT)” value on NBD1 was “B (a value above 5 °C and less than or equal to 10 °C is marked “B”)”. In addition, the “TECC (AUC, 10 μM)” value on CFTR is reported as “A (a TECC value less than 12 is marked “A”)”.

For the compound `Cn1nc2nc1-c1cc(ccc1F)[S+]([O-])c1c(F)cc3[nH]ccc3c1CCS(=O)(=O)CC(C)(C)CCC[C@]2(C)c1cccc([C@@H](O)CO)c1` (single isomer, unassigned) [Compound 236B], the “DSLS 3D (100 μM ΔT)” value on NBD1 is “C (a value greater than 10 °C and less than or equal to 25 °C is marked “C”)”. In addition, the “TECC (AUC, 10 μM)” value on CFTR was “C (a value between 20 and 80 is marked “C”)”.

Regarding `C[C@H](O)Cc1cccc([C@@]2(C)CCCC(C)(C)CS(=O)(=O)CCc3c(c(F)cc4[nH]ccc34)[S+]([O-])c3ccc(F)c(c3)-c3nc2nn3C)c1` (single isomer, unassigned) [Compound 237A], the “DSLS 3D (100 μM ΔT)” value on NBD1 is “A (an ΔTagg value less than or equal to 5 °C is marked “A”)”. Also, the “TECC (AUC, 10 μM)” value at CFTR is “C (a value between 20 and 80 is marked “C”)”.

As to `C[C@H](O)Cc1cccc([C@@]2(C)CCCC(C)(C)CS(=O)(=O)CCc3c(c(F)cc4[nH]ccc34)[S+]([O-])c3ccc(F)c(c3)-c3nc2nn3C)c1` (single isomer, unassigned) [Compound 237B], the “DSLS 3D (100 μM ΔT)” value on NBD1 is “C (a value greater than 10 °C and less than or equal to 25 °C is marked “C”)”. Moreover, the “TECC (AUC, 10 μM)” value on CFTR was “C (a value between 20 and 80 is marked “C”)”.

As to `C[C@@H](Cc1cccc([C@@]2(C)CCCC(C)(C)CS(=O)(=O)CCc3c(c(F)cc4[nH]ccc34)[S+]([O-])c3ccnc(c3)-c3nc2cs3)c1)C(=O)O` (single isomer, unassigned) [Compound 239A], the “DSLS 3D (100 μM ΔT)” value at NBD1 was “A (an ΔTagg value less than or equal to 5 °C is marked “A”)”. Besides, at CFTR, the “TECC (AUC, 10 μM)” value is “B (a value between 12-20 is marked “B”)”.

Turning to `C[C@@H](Cc1cccc([C@@]2(C)CCCC(C)(C)CS(=O)(=O)CCc3c(c(F)cc4[nH]ccc34)[S+]([O-])c3ccnc(c3)-c3nc2cs3)c1)C(=O)O` (single isomer, unassigned) [Compound 239B], at NBD1, the “DSLS 3D (100 μM ΔT)” value was “A (an ΔTagg value less than or equal to 5 °C is marked “A”)”. The “TECC (AUC, 10 μM)” value at CFTR was “A (a TECC value less than 12 is marked “A”)”.

Take `C[C@@H](Cc1cccc([C@@]2(C)CCCC(C)(C)CS(=O)(=O)CCc3c(c(F)cc4[nH]ccc34)[S+]([O-])c3ccc(F)c(c3)-c3nc2cs3)c1)C(=O)O` (single isomer, unassigned) [Compound 241A]: on NBD1, the “DSLS 3D (100 μM ΔT)” value was “A (an ΔTagg value less than or equal to 5 °C is marked “A”)”. Also, at CFTR, the “TECC (AUC, 10 μM)” value is “C (a value between 20 and 80 is marked “C”)”.

As to `C[C@@H](Cc1cccc([C@@]2(C)CCCC(C)(C)CS(=O)(=O)CCc3c(c(F)cc4[nH]ccc34)[S+]([O-])c3ccc(F)c(c3)-c3nc2cs3)c1)C(=O)O` (single isomer, unassigned) [Compound 241B], the “DSLS 3D (100 μM ΔT)” value on NBD1 is “A (an ΔTagg value less than or equal to 5 °C is marked “A”)”. In addition, the “TECC (AUC, 10 μM)” value at CFTR is on record as “A (a TECC value less than 12 is marked “A”)”.

On to `Cn1nc2nc1-c1cc(ccn1)[S+]([O-])c1c(F)cc3[nH]ccc3c1CCS(=O)(=O)CC(C)(C)CCC[C@]2(C)c1cccc(CCS(C)(=O)=O)c1` (single isomer, unassigned) [Compound 243A], for which the “DSLS 3D (100 μM ΔT)” value on NBD1 is “B (a value above 5 °C and less than or equal to 10 °C is marked “B”)”. Further, on CFTR, the “TECC (AUC, 10 μM)” value is “C (a value between 20 and 80 is marked “C”)”.

In the case of `Cn1nc2nc1-c1cc(ccn1)[S+]([O-])c1c(F)cc3[nH]ccc3c1CCS(=O)(=O)CC(C)(C)CCC[C@]2(C)c1cccc(CCS(C)(=O)=O)c1` (single isomer, unassigned) [Compound 243B], at NBD1, the “DSLS 3D (100 μM ΔT)” value was “C (a value greater than 10 °C and less than or equal to 25 °C is marked “C”)”. In addition, the “TECC (AUC, 10 μM)” value at CFTR was “C (a value between 20 and 80 is marked “C”)”.

Take `C[C@H](Cc1ccc(C2(C)CCCC(C)(C)CS(=O)(=O)CCc3c(c(F)cc4[nH]ccc34)Oc3ccnc(c3)-c3nc2nn3C)s1)C(=O)O` (single isomer, unassigned) [Compound 246A]: at NBD1, the “DSLS 3D (100 μM ΔT)” value is “C (a value greater than 10 °C and less than or equal to 25 °C is marked “C”)”. Besides, on CFTR, the “TECC (AUC, 10 μM)” value is given as “B (a value between 12-20 is marked “B”)”.

As for `C[C@H](Cc1ccc(C2(C)CCCC(C)(C)CS(=O)(=O)CCc3c(c(F)cc4[nH]ccc34)Oc3ccnc(c3)-c3nc2nn3C)s1)C(=O)O` (single isomer, unassigned) [Compound 246B], the “DSLS 3D (100 μM ΔT)” value on NBD1 is “A (an ΔTagg value less than or equal to 5 °C is marked “A”)”. The “TECC (AUC, 10 μM)” value on CFTR is reported as “B (a value between 12-20 is marked “B”)”.

Turning to `C[C@@H](Cc1cccc([C@@]2(C)CCCC(C)(C)CS(=O)(=O)CCc3c(c(F)cc4[nH]ccc34)[S+]([O-])c3ccc(F)c(c3)-c3nc2co3)c1)C(=O)O` (single isomer, unassigned) [Compound 248A], the “DSLS 3D (100 μM ΔT)” value on NBD1 is “C (a value greater than 10 °C and less than or equal to 25 °C is marked “C”)”. Further, the “TECC (AUC, 10 μM)” value on CFTR was “C (a value between 20 and 80 is marked “C”)”.

For `C[C@@H](Cc1cccc([C@@]2(C)CCCC(C)(C)CS(=O)(=O)CCc3c(c(F)cc4[nH]ccc34)[S+]([O-])c3ccc(F)c(c3)-c3nc2co3)c1)C(=O)O` (single isomer, unassigned) [Compound 248B], the “DSLS 3D (100 μM ΔT)” value on NBD1 is “C (a value greater than 10 °C and less than or equal to 25 °C is marked “C”)”. Moreover, the “TECC (AUC, 10 μM)” value on CFTR is on record as “A (a TECC value less than 12 is marked “A”)”.

As for `Cn1nc2nc1-c1cc(ccn1)[S+]([O-])c1c(F)cc3[nH]ccc3c1CCS(=O)(=O)CC(C)(C)CCC[C@]2(C)c1cccc(CC(=O)O)c1` (single isomer, unassigned) [Compound 249A], on NBD1, the “DSLS 3D (100 μM ΔT)” value is “C (a value greater than 10 °C and less than or equal to 25 °C is marked “C”)”. The “TECC (AUC, 10 μM)” value at CFTR was “C (a value between 20 and 80 is marked “C”)”.

As to `Cn1nc2nc1-c1cc(ccn1)[S+]([O-])c1c(F)cc3[nH]ccc3c1CCS(=O)(=O)CC(C)(C)CCC[C@]2(C)c1cccc(CC(=O)O)c1` (single isomer, unassigned) [Compound 249B], the “DSLS 3D (100 μM ΔT)” value on NBD1 was “C (a value greater than 10 °C and less than or equal to 25 °C is marked “C”)”. The “TECC (AUC, 10 μM)” value on CFTR is reported as “B (a value between 12-20 is marked “B”)”.
